Patent publication US12351593B2, “Platinum IV complexes with substantially increased antitumor efficacy” (priority 2019, dated 2025)

Columns and labels:
[1] = test system: cancer cell line Capan-2 (pancreas adenocarcinoma, DSMZ, ACC-245); assay: XTT test of antitumor efficacy in vitro, Capan-2; format: cell-based; conditions: 72 hours exposure
Description: (§1) XTT method was used in the in vitro experiments. We tested mother platinum (IV) complex TU31 (where X=Cl^−), three new platinum (IV) complexes according to the invention, where X=ClCH2COO^− (complex TU105), F3CCOO^− (complex TU106) and NO3^− (complex TU113), reference platinum (II) complex Oxaliplatin and reference platinum (IV) complex Satraplatin. Two cancer cell lines of heavy-to-treat tumors Capan-2 (pancreas adenocarcinoma) and PC-3 (prostate carcinoma) were used in XTT tests. The obtained results are summarized in the form of IC50 values in the following Table 1:
(§2) Antitumor efficacy of the new Pt(IV) complexes according to the invention was studied on heavy to treat cancer lines of pancreas and prostate. XTT method was used. Results were evaluated in IC50 values and compared with reference Pt(II) complex Oxaliplatin and reference Pt (IV) complex Satraplatin.
(§3) Fresh tumor cell lines were purchased from the Cell Bank to ensure their quality and activities. • a) Capan-2, pancreatic ductal adenocarcinoma, DSMZ, ACC-245 • b) PC-3, prostate carcinoma, ATCC® CRL1435™ Cultivation's Conditions of Tumor Cell Lines: Abbreviation of Used Compounds: • DMSO: dimethyl sulfoxide • PBS: phosphate buffered saline • XTT: 2,3-bis-(2-methoxy-4-nitro-5-sulphophenyl)-2H-tetrazolium-5-carboxanilide salt • PMS: N-methyl-dibenzopyrazinmethylsulfate • FBS: fetal bovine serum • NEAA: non-essential amino acids • L-glu: L-glutamine • DMEM: Dulbecco's Modified Eagle's Medium (SigmaAldrich) • PMS: phenazine methosulfate • Cultivation's conditions: 37° C., 5% CO2 • Growth medium: DMEM, 10% FBS, 2 mM L-glut., NEAA 100× XTT Working Procedure:
(§4) Tested compounds were dissolved in DMSO and diluted by PBS to tested concentration range just before addition to cell lines in wells. PBS was used as a positive control, DMSO in final concentration 20% was used as a negative control. All concentrations of compounds were assayed in triplicates. Each determination was carried out twice and was blinded for experimenter.
(§5) Testing was conducted on a 96-well plate. Dosage of tumor cells was about 2.5. 10^4 cells per well, dosage of growth medium was 100 μl per well. After 24 hours, the growth medium was suck off and 80 μl of fresh growth medium and 20 μl of solution with different concentration of the tested substance were added to wells. After 72 hours, the medium was suck off and 100 μl of a solution of Optimem reagent containing XTT and PMS were added to wells. After another 4 hours, the absorbance was measured at 450 nm (reference was at 630 nm). Results as IC50 were evaluated from the graph of normalized viability of cells plotted against the logarithm of the concentration of the substance.

[2] = test system: cancer cell line PC-3 (prostate carcinoma, ATCC CRL-1435); assay: XTT test of antitumor efficacy in vitro, PC-3; format: cell-based; conditions: 72 hours exposure
Description: as §1, §2, §3, §4, §5

[3] = test system: Capan-2, pancreas adenocarcinoma (DSMZ, ACC-245); assay: Antitumor efficacy in vivo, athymic mice model, subcutaneous Capan-2 tumor; set-up: species or system mice (Athymic Nude-FOXN-1^nu); conditions: for Average tumor weight 28 d / TWI % (tumor weight inhibition) / Average tumor volume 1 d / Average tumor volume 4 d / Average tumor volume 8 d / Average tumor volume 11 d / Average tumor volume 15 d / Average tumor volume 18 d / Average tumor volume 22 d / Average tumor volume 25 d / Average tumor volume 29 d / TVI % (tumor volume inhibition): Capan-2, oral dose 20 mg/kg; for Average tumor weight 28 d / TWI % (tumor weight inhibition): 28 d; for Average tumor volume 1 d: day 1; for Average tumor volume 4 d: day 4; for Average tumor volume 8 d: day 8; for Average tumor volume 11 d: day 11; for Average tumor volume 15 d: day 15; for Average tumor volume 18 d: day 18; for Average tumor volume 22 d: day 22; for Average tumor volume 25 d: day 25; for Average tumor volume 29 d: day 29; for TVI % (tumor volume inhibition): end of experiment; for anti-tumor efficacy (TWI %), times greater than for reference Satraplatin: both pancreatic tumors Capan-2 and PaTu8902
Description: (§6) Two new platinum (IV) complexes TU105 and TU106 from XTT tests were further studied in vivo on athymic mice model with two pancreatic tumors. The platinum (IV) complex Satraplatin and mother complex TU31 were used as reference compounds again. Two heavy-to-treat tumors of pancreas Capan-2 and PaTu8902 were cultivated and then subcutaneously administered to mice at a dose of 1.10^7 cells/mouse. After an increase in the subcutaneous tumors to a volume of about 0.2 cm^3, two doses of respective complexes 2×20 mg/kg were administered orally every 1 week. Control group of mice received no drug. Volume of tumors were continuously measured throughout the experiment. Three weeks after the second dose, mice were sacrificed, tumors removed, weighed and obtained data were evaluated in the form of tumor volume inhibition in % (TVI %) and tumor weight inhibition in % (TWI %), where: TVI %=100−[(TVexp/TVcont)×100] • TVexp=average volume of cured tumors in cm^3 • TVcont=average volume of control tumors in cm^3 TWI %=100−[(TWexp/TWcont)×100] • TWexp=average weight of cured tumors in g • TWcont=average weight of control tumors in g
(§7) In vivo model: Athymic Nude-FOXN-1^nu, 6 mice per group (3 male+3 female)
(§8) • a) Capan-2, pancreatic adenocarcinoma, ductal (DSMZ, ACC-245) • b) […], pancreatic adenocarcinoma, ductal, high metastatic, grade II (DSMZ, ACC-179) Used Pt (IV) Complexes: • a) the reference Pt (IV) complex Satraplatin, detailed specification, see example 4. • b) the mother Pt (IV) complex TU31, detailed specification, see example 4. • c) the new Pt (IV) complex TU105, detailed specification, see example 4. • d) the new Pt (IV) complex TU106, detailed specification, see example 4. Used Doses for Oral Administration:
(§9) The homogenous bulk composition of the each tested Pt (IV) complex (20 mass. %) with Gelucire 50/13 (80 mass. %) was converted to water emulsion before oral administration to mice.
(§10) Cultivation conditions of cancer cell lines: 37° C., 5% CO2, DMEM (Dulbecco's Modified Eagle's Medium, Sigma Aldrich), 10% FBS, (fetal bovine serum), 2 mM L-glutamin, non-essential aminoacids
(§11) Transplantation of cancer cells: A dose 1×10^7 of cells was subcutaneously transplanted to each experimental mouse, then mice were subdivided into individual experimental groups.
(§12) After an increase in the subcutaneous tumors to a volume of about 0.2 cm^3, two doses of respective complexes 2×20 mg/kg were administered orally every 1 week. The control group of mice received no drug. Volume of tumors were continuously measured throughout the experiment. Three weeks after the second dose, mice were sacrificed, tumors removed, weighed and obtained data were evaluated in the form of tumor volume inhibition in % (TVI %) and tumor weight inhibition in % (TWI %), where: TVI %=100−[(TVexp/TVcont)×100] • TVexp=average volume of cured tumors in cm^3 • TVcont=average volume of control tumors in cm^3 TWI %=100−[(TWexp/TWcont)×100] • TWexp=average weight of cured tumors in g • TWcont=average weight of control tumors in g Obtained Results: […]

[4] = test system: PaTu8902, pancreas adenocarcinoma, metastatic, grade II (DSMZ, ACC-179); assay: Antitumor efficacy in vivo, athymic mice model, subcutaneous PaTu8902 tumor; set-up: species or system mice (Athymic Nude-FOXN-1^nu); conditions: PaTu8902, oral dose 20 mg/kg; for Average tumor weight 28 d / TWI % (tumor weight inhibition): 28 d; for Average volume of tumor 1 d: day 1; for Average volume of tumor 4 d: day 4; for Average volume of tumor 8 d: day 8; for Average volume of tumor 11 d: day 11; for Average volume of tumor 15 d: day 15; for Average volume of tumor 18 d: day 18; for Average volume of tumor 22 d: day 22; for Average volume of tumor 25 d: day 25; for Average volume of tumor 29 d: day 29; for TVI % (tumor volume inhibition): end of experiment
Description: as §6, §7, §8, §9, §10, §11, §12

## N[C@@H]1CCCC[C@H]1N.O=C([O-])C(=O)[O-].[Pt+2] [Oxaliplatin, (1R,2R-1,2-cyclohexanediamine-N,N′) (ethanedioato-O,O′) platinum (II), reference compound]
[1]
  IC50: > 100 µM
[2]
  IC50: 55.7 µM

## CC(=O)[O][Pt]([NH2])([Cl])([Cl])([NH]C1CCCCC1)[O]C(C)=O [Satraplatin, cis-(ammine, cyclohexylamine)-trans-bis-acetate-cis-dichloride Pt(IV), reference compound]
[1]
  IC50: > 30 µM
[2]
  IC50: 10.2 µM
[3]
  Average tumor weight 28 d: 0.711 g
  TWI % (tumor weight inhibition): 10.3%
  Average tumor volume 1 d: 0.21 cm^3
  Average tumor volume 4 d: 0.23 cm^3
  Average tumor volume 8 d: 0.30 cm^3
  Average tumor volume 11 d: 0.39 cm^3
  Average tumor volume 15 d: 0.47 cm^3
  Average tumor volume 18 d: 0.56 cm^3
  Average tumor volume 22 d: 0.66 cm^3
  Average tumor volume 25 d: 0.77 cm^3
  Average tumor volume 29 d: 0.90 cm^3
  TVI % (tumor volume inhibition): 10.0%
[4]
  Average tumor weight 28 d: 7.245 g
  TWI % (tumor weight inhibition): 11.5%
  Average volume of tumor 1 d: 0.21 cm^3
  Average volume of tumor 4 d: 0.50 cm^3
  Average volume of tumor 8 d: 0.99 cm^3
  Average volume of tumor 11 d: 1.94 cm^3
  Average volume of tumor 15 d: 3.10 cm^3
  Average volume of tumor 18 d: 4.80 cm^3
  Average volume of tumor 22 d: 6.80 cm^3
  Average volume of tumor 25 d: 9.35 cm^3
  Average volume of tumor 29 d: 11.90 cm^3
  TVI % (tumor volume inhibition): 12.8%

## [NH3+][Pt-2]([Cl])([NH2+]C12CC3CC(CC(C3)C1)C2)([O]C(=O)CCl)([O]C(=O)C12CC3CC(CC(C3)C1)C2)[O]C(=O)C12CC3CC(CC(C3)C1)C2 [TU105, cis-(ammine,1-adamantylamine)-trans-bis(1-adamantylcarboxylate)-cis-(chloride, monochloroacetate) Pt (IV)]
[1]
  IC50: 0.04 µM
[2]
  IC50: 0.06 µM
[3]
  Average tumor weight 28 d: 0.213 g
  TWI % (tumor weight inhibition): 73.1%
  Average tumor volume 1 d: 0.20 cm^3
  Average tumor volume 4 d: 0.21 cm^3
  Average tumor volume 8 d: 0.22 cm^3
  Average tumor volume 11 d: 0.23 cm^3
  Average tumor volume 15 d: 0.27 cm^3
  Average tumor volume 18 d: 0.30 cm^3
  Average tumor volume 22 d: 0.34 cm^3
  Average tumor volume 25 d: 0.37 cm^3
  Average tumor volume 29 d: 0.40 cm^3
  TVI % (tumor volume inhibition): 60.0%
  anti-tumor efficacy (TWI %), times greater than for reference Satraplatin: about 7 times
[4]
  Average tumor weight 28 d: 2.522 g
  TWI % (tumor weight inhibition): 69.2%
  Average volume of tumor 1 d: 0.21 cm^3
  Average volume of tumor 4 d: 0.21 cm^3
  Average volume of tumor 8 d: 0.40 cm^3
  Average volume of tumor 11 d: 0.62 cm^3
  Average volume of tumor 15 d: 1.06 cm^3
  Average volume of tumor 18 d: 1.65 cm^3
  Average volume of tumor 22 d: 2.46 cm^3
  Average volume of tumor 25 d: 3.40 cm^3
  Average volume of tumor 29 d: 4.35 cm^3
  TVI % (tumor volume inhibition): 68.1%

## N.NC12CC3CC(CC(C3)C1)C2.O=C([O-])C(F)(F)F.O=C([O-])C12CC3CC(CC(C3)C1)C2.O=C([O-])C12CC3CC(CC(C3)C1)C2.[Cl-].[Pt+4] [TU106, cis-(ammine,1-adamantylamine)-trans-bis(1-adamantylcarboxylate)-cis-(chloride, trifluoroacetate) Pt (IV)]
[1]
  IC50: 0.02 µM
[2]
  IC50: 0.07 µM
[3]
  Average tumor weight 28 d: 0.166 g
  TWI % (tumor weight inhibition): 79.1%
  Average tumor volume 1 d: 0.21 cm^3
  Average tumor volume 4 d: 0.21 cm^3
  Average tumor volume 8 d: 0.23 cm^3
  Average tumor volume 11 d: 0.24 cm^3
  Average tumor volume 15 d: 0.25 cm^3
  Average tumor volume 18 d: 0.26 cm^3
  Average tumor volume 22 d: 0.28 cm^3
  Average tumor volume 25 d: 0.29 cm^3
  Average tumor volume 29 d: 0.31 cm^3
  TVI % (tumor volume inhibition): 69.0%
  anti-tumor efficacy (TWI %), times greater than for reference Satraplatin: about 7 times
[4]
  Average tumor weight 28 d: 2.317 g
  TWI % (tumor weight inhibition): 71.7%
  Average volume of tumor 1 d: 0.21 cm^3
  Average volume of tumor 4 d: 0.21 cm^3
  Average volume of tumor 8 d: 0.37 cm^3
  Average volume of tumor 11 d: 0.60 cm^3
  Average volume of tumor 15 d: 1.01 cm^3
  Average volume of tumor 18 d: 1.60 cm^3
  Average volume of tumor 22 d: 2.35 cm^3
  Average volume of tumor 25 d: 3.27 cm^3
  Average volume of tumor 29 d: 4.20 cm^3
  TVI % (tumor volume inhibition): 69.2%

## [NH3+][Pt-2]([Cl])([NH2+]C12CC3CC(CC(C3)C1)C2)([O]C(=O)C12CC3CC(CC(C3)C1)C2)([O]C(=O)C12CC3CC(CC(C3)C1)C2)[O][N+](=O)[O-] [TU113, cis-(ammine,1-adamantylamine)-trans-bis(1-adamantylcarboxylate)-cis-(chloride, nitrate) Pt (IV)]
[1]
  IC50: 0.11 µM
[2]
  IC50: 0.23 µM
